Tests used:
[1] = system: COS-7 cells; experiment: Immunofluorescence of ARTS and XIAP localization in COS-7 cells; format: cell-based, African Green Monkey; conditions: for ARTS and XIAP co-localization: COS-7 cells transfected with AU5-ARTS and pcDNA3-Myc-XIAP, 100 mM etoposide
Description: Cells were fixed with 4% paraformaldehyde in PBS for 20 min at room temperature, washed with PBS, permeabilized with 0.5% Triton-X in PBS for 5 min, and incubated with primary antibodies for 2 hours at room temperature (rabbit polyclonal anti-ARTS (1:20,000; Sigma), monoclonal anti-ARTS, and/or monoclonal anti-XIAP (1:500; used in subsequent Examples). Cells were washed three times with PBS/0.1% Triton-X and incubated with FITC conjugated anti-mouse and Rhodamin^TX-conjugated anti-rabbit secondary antibodies (Jackson). Images were analyzed using a confocal laser microscope (Zeiss LSM 510). Mitochondria were visualized with MitoTracker® Red CMXRos (Molecular Probes/Invitrogen).
For caspase inhibition, we added […] of BOC-Asp(Ome)CH2F (Enzyme Systems Products) one hour prior to addition of the apoptotic agents.

[2] = system: XIAP; experiment: Co-immunoprecipitation of ARTS-XIAP complexes in NRP154 cells; format: cell-based, rat
Description: (§1) Protein extracts were prepared with lysis buffer (150 mM NaCl, 50 mM Tris-HCl (pH 8), 1% NP-40, 0.5% deoxycholate acid) with protease inhibitors. Lysates containing equal amounts of total protein were pre-cleared overnight with 1 mg mouse IgG (Sigma) coupled with protein A/G-Sepharose mix (Amersham Biosciences) and the beads centrifuged. Supernatants were immuno-precipitated using 5 μl of anti-ARTS antibody for 4 h, anti-XIAP antibody, rabbit anti-myc antibody, or mouse IgG (negative control). Protein A/G Sepharose beads were added for 1 hour and washed four times with PBS. Antibodies against XIAP (as above), Myc (Santa Cruz), or anti-ARTS (NT) antibodies directed against the common N′ terminus of ARTS and H5 (ProSci Incorporated) were used for Western blot.

[3] = system: ARTS; experiment: Cell fractionation, ARTS levels in sub-cellular fractions; format: cell-based; conditions: treated with staurosporine (STS) for 1 hour
Description: Cells were homogenized in 20 mM HEPES-KOH, pH 7.5, 10 mM KCl, 1.5 mM MgCl2, 1 mM sodium EDTA, 1 mM sodium EGTA, and 1 mM dithiothreitol in the presence of 250 mM sucrose and protease inhibitors. Homogenates were centrifuged at 500×g for 5 min at 4° C., and the supernatant was centrifuged at 10,000×g for 20 min to obtain mitochondria. The pellet was washed and solubilized in TNC buffer (10 mM Tris acetate, pH 8.0, 0.5% Nonidet P-40 (NP-40), 5 mM CaCl2) with protease inhibitors. Protein concentration was determined with a Micro-BCA kit (Pierce).

[4] = system: XIAP; experiment: Co-immunoprecipitation of ARTS-XIAP complexes in COS-7 cells; format: cell-based, African Green Monkey
Description: as §1

[5] = Larisch S et al, Nat Cell Biol 2: 915-921, 2000; cited from earlier work
[6] = biological target: T1, XIAP (Homo sapiens, UniProt P98170); experiment: GST pull-down assay of ARTS and XIAP; format: binding; conditions: lysates of COS-7 cells transfected with AU5-tagged construct; Western blot anti-AU5
T1 construct: made in house; host or cells: bacteria (pGEX-XIAP plasmid obtained from Dr. Colin S. Duckett)
Source text: For the glutathione-S-transferase (GST)-pull down assays, ARTS was subcloned into the pGEX 4T™ (Pharmacia Biotech) construct; GST-ARTS fusion protein was generated by Polymerase Chain Reaction (PCR) using the following primers: • BamHI-5′-[…]-3′ (SEQ ID No: 4) and • EcoRI-5′ […]-3′ (SEQ ID No: 5) and cloned into BamHI and EcoRI sites in pGEX 4T. Preparation of Beads
For in vitro binding studies, recombinant GST-ARTS or GST-XIAP fusion proteins were purified from bacteria. After sonication, 0.1% Triton X-100 and protease inhibitors (Mini-Complete™, Roche) were added to the bacterial extract followed by 10,000 rotations per minute (RPM) centrifugation. Supernatants of bacterial extracts were collected and incubated in the presence of glutathione-Sepharose 4B beads (Amersham Biosciences) for 30 minute at 4° C. The beads were washed three times.
Cells were lysed in RIPA buffer (150 mM NaCl, 50 mM Tris-HCl (pH 8), 1% NP-40, 0.1% SDS, 0.5% deoxycholate acid containing protease inhibitors (mini Complete, Roche)). Samples were divided into two tubes; one was rotated for 4 h at 4° C. with GST-ARTS fusion protein coupled with the glutathione beads, or GST-XIAP fusion protein. The second tube was incubated with glutathione beads alone (negative control). Samples were centrifuged at 4000-RPM at 4° C. for 4 minute and washed five times in lysis buffer, then boiled in sample buffer for 5 minutes to elute bound proteins Proteins were separated on 12.5% SDS-PAGE gel followed by Western blot analysis using monoclonal anti-ARTS antibody (Sigma), monoclonal anti-XIAP antibody (BD Transduction Laboratories) or monoclonal anti-myc antibody (Clontech).

T1 sequence (P98170 whole entry): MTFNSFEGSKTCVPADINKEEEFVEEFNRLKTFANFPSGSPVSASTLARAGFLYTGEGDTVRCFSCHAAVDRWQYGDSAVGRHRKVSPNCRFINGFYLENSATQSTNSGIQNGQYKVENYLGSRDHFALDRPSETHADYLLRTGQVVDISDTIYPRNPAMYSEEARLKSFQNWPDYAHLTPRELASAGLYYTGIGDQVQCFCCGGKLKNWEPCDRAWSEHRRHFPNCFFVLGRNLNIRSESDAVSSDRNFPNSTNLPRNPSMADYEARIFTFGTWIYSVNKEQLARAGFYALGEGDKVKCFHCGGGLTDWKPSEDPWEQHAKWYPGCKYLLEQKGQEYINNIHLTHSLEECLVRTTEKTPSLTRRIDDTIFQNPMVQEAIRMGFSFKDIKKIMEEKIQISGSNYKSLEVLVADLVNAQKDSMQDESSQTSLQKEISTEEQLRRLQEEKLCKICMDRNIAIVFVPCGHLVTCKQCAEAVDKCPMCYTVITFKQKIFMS

**Q.** Which ARTS localization ([1]; ARTS-transfected COS-7 cells treated with etoposide, absence of caspase inhibitors) does the source give for `COc1cc([C@@H]2c3cc4c(cc3[C@@H](O[C@@H]3O[C@@H]5CO[C@@H](C)O[C@H]5[C@H](O)[C@H]3O)[C@H]3COC(=O)[C@H]23)OCO4)cc(OC)c1O` [etoposide] here?
**A.** Its ARTS localization is “accumulated ARTS in the nucleus”.

**Q.** And the “ARTS and XIAP co-localization” value ([1]; 2 hours)?
**A.** Its value is “extensive overlap between ARTS and XIAP staining”.

**Q.** And the “ARTS and XIAP co-localization” value ([1]; 16 hours)?
**A.** Its value is “most of the staining for both proteins was confined to the nucleus”.

**Q.** And the ARTS-XIAP complexes ([2]; 6 hours of etoposide treatment (100 μM))?
**A.** The ARTS-XIAP complexes was “increased further”.

**Q.** What about the ARTS-XIAP complexes ([2]; three hours of etoposide treatment (100 μM)) of the same molecule?
**A.** Its ARTS-XIAP complexes is “a large number of ARTS-XIAP complexes were detected”.

**Q.** With `CN[C@@H]1C[C@H]2O[C@@](C)([C@@H]1OC)n1c3ccccc3c3c4c(c5c6ccccc6n2c5c31)C(=O)NC4` [staurosporine, reference compound] as the molecule, how does the “ARTS levels in the cytosol” value [3] read?
**A.** Its value is “strongly increased”.

**Q.** What about the ARTS-XIAP binding ([4]; COS-7 cells, endogenous proteins, three hours of incubation with staurosporine) of the same molecule?
**A.** The ARTS-XIAP binding was “significant increase in ARTS-XIAP binding”.

B1: H5: H5 septin protein derived by differential splicing from the same locus as ARTS; considerably larger protein (protein)
chain: MDRSLGWQGNSVPEDRTEAGIKRFLEDTTDDGELSKFVKDFSGNASCHPPEAKTWASRPQVPEPRPQAPDLYDDDLEFRPPSRPQSSDNQQYFCAPAPLSPSARPRSPWGKLDPYDSSEDDKEYVGFATLPNQVHRKSVKKGFDFTLMVAGESGLGKSTLVNSLFLTDLYRDRKLLGAEERIMQTVEITKHAVDIEEKGVRLRLTIVDTPGFGDAVNNTECWKPVAEYIDQQFEQYFRDESGLNRKNIQDNRVHCCLYFISPFGHGLRPLDVEFMKALHQRVNIVPILAKADTLTPPEVDHKKRKIREEIEHFGIKIYQFPDCDSDEDEDFKLQDQALKESIPFAVIGSNTVVEARGRRVRGRLYPWGIVEVENPGHCDFVKLRTMLVRTHMQDLKDVTRETHYENYRAQCIQSMTRLVVKERNRNKLTRESGTDFPIPAVPPGTDPETEKLIREKDEELRRMQEMLHKIQKQMKENY
modifications: left off: small tags and cut ends
**Q.** Which results are given for B1?
**A.** pro-apoptotic activity [5]: lacks pro-apoptotic activity; binding to GST-XIAP [6]: Neither ARTSΔC nor H5 were able to bind to XIAP; binding to XIAP in co-IP ([4]; COS-7 cells co-transfected with pcDNA-mycXIAP and AU5-tagged construct): Neither of these mutants bound to XIAP

— patent US20050227302A1, “Induction of apoptosis via ARTS-IAP complexes” (priority 2004, published 2005)
